This note sets out measurements from patent publication US4950651A, “Nitroso-N-(β-chloro ethyl)-carbamoyl peptides” (priority 1981, dated 1990).

Each structure is given as a SMILES string. Structures can show the parent of a compound that is named as a salt. Where two headings read alike, the source gives them in different places. Where a SMILES comes first, the peptide text is derived from it. The star is where a group is joined. Carbamoyl(2-ClEt,NO) = O=NN(CCCl)C(=O)*

Data set [1] concerns L1210 leukemia. The format is in vivo, mice. The text has this: Effect of compound of formula X in combination
with pharmaceuticals in mice suffering from L1210

The test system of a further data set is L-1210 leukemia. The data set is described as follows: Effect on intraperitoneally implanted L-1210 leukemia in mice (Table I). The class given is in vivo. To be noted: treatment 3 days. The text has this:
In table I the effect of Compound X [drawing 8] and VII on intraperitoneally implanted L-1210 leukemia is shown on mice.
Tumor inoculum = 10^6, ascites cells, i.p.
Host animal = CDF, female mice
Toxicity = on the 5th day < 4/6 mice are alive.
Evaluation = MST = average survival period
Critical limit = T/C ≥ 125, significant antitumor activity.

In data set [2] the test system is L1210 leukemia. Nature of the data set: Relation between effect and chemical structure in mice suffering from L1210 leukemia (Table III). The format is in vivo. The text has this:
Examination of the relation between the
effect and the chemical structure with compounds
similar to compound of formula X in mice suffering

The test system of a further data set is Lewis lung tumor. Nature of the data set: Effect on solid tumors: Lewis lung metastatizing mice tumor (i.m.). The class given is in vivo. The text has this:
(§1) (B) Lewis lung and B16 melanoma - meta-
(§2) statizing mice tumor (i.m.)
(§3) i.p. administration from the 1st day after […]

The subject of another data set is B16 melanoma. The data set is described as follows: Effect on solid tumors: B16 melanoma metastatizing mice tumor (i.m.). The class given is in vivo.
Excerpt: as §1, §2, §3

In the case of `O[C@H]([C@H](O)[C@@H](O)CBr)[C@H](O)CBr` [dibromodulcitol], the ILS % with L1210 leukemia [1] (1 × 50 mg/kg, day 2) worked out at 0%.

On to `O=NN(CCCl)C(=O)N[C@H]1C(O)O[C@H](CO)[C@@H](O)[C@@H]1O` (stereo partly drawn) [Chlorosoticin, 2-[3-(2-chloro-ethyl)-3-nitroso-ureido]-2-deoxy-O-glycopyranose], for which, in the data set on L-1210 leukemia (dose IP 8 mg/kg), the “Average loss of weight on the 5th day” value is recorded as “+1.2 g”; the “MST (average survival period)” value worked out at 9.0 days; the “MST efficiency %, T/C” value amounted to 150%; the “Number of live mice on the 5th day” value is 6/6. In the data set with L-1210 leukemia (dose IP 16 mg/kg), the “Average loss of weight on the 5th day” value was -0.8 g; the “MST (average survival period)” value turned out to be 20.5 days; the “MST efficiency %, T/C” value amounted to 342%; the “Number of live mice on the 5th day” value is given as 6/6. For the same compound, in the data set with L-1210 leukemia (dose IP 32 mg/kg), the “Average loss of weight on the 5th day” value is recorded as -1.2 g; the “MST (average survival period)” value was more than 47.0 days; the “MST efficiency %, T/C” value is recorded as more than 783%; the “Number of live mice on the 5th day” value was 5/6. In addition, the “Number of live mice on the [47th] day” value in the data set with L-1210 leukemia (dose IP 32 mg/kg) came out at 3. In addition, in the data set with L-1210 leukemia (dose IP 48 mg/kg), the “Average loss of weight on the 5th day” value is -1.3 g; the “MST (average survival period)” value was found to be 8.5 days; the “MST efficiency %, T/C” value is reported as 142%; the “Number of live mice on the 5th day” value was 6/6.

On to `CC(C)[C@H](NC(=O)[C@@H]1CCCN1C(=O)[C@H](CCCCN)NC(=O)CNC(=O)N(CCCl)N=O)C(N)=O` [XII, α-N-nitroso-N-(β-chloro-ethyl)-carbamoyl-glycyl-lysyl-prolyl-valine-amide-hydrochloride] ({Carbamoyl(2-ClEt,NO)}-GKPV-NH2), for which the ILS % with L1210 leukemia [2] (15 mg/kg) was 20%; with L1210 leukemia [2] (45 mg/kg) it was 10%; with L1210 leukemia [2] (100 mg/kg) it was 35%; with L1210 leukemia [2] (150 mg/kg), 230%.

For the compound `O=NN(CCCl)C(=O)NCCCl` [BCNU, 1,3-bis-(β-chloro-ethyl)-1-nitroso-urea], the ILS % with Lewis lung tumor (20 mg/kg i.p.) is 36%; in the data set on Lewis lung tumor (5 × 4 mg/kg i.p.) it was 19%; with L1210 leukemia [1] (5 mg/kg, day 1), 25%; in the data set with L1210 leukemia [1] (20 mg/kg, day 1), 110%; in the data set with L1210 leukemia [1] (1 × 10 mg/kg, day 2), 77%; in the data set with L1210 leukemia [1] (1 × 20 mg/kg, day 3), 70%. Also, the ILS % is 61% in the data set on B16 melanoma (20 mg/kg i.p.) and 31% with B16 melanoma (5 × 4 mg/kg i.p.). The Median surviving day came out at 28.5 days in the data set on Lewis lung tumor (20 mg/kg i.p.), 25.0 days in the data set with Lewis lung tumor (5 × 4 mg/kg i.p.), 42.0 days in the data set on B16 melanoma (20 mg/kg i.p.) and 34.0 days in the data set on B16 melanoma (5 × 4 mg/kg i.p.). Further, the “Average loss of weight on the 5th day” value is -0.8 g with L-1210 leukemia (dose IP 30 mg/kg) and -1.4 g with L-1210 leukemia (dose IP 40 mg/kg). Also, the “MST (average survival period)” value in the data set with L-1210 leukemia (dose IP 30 mg/kg) and with L-1210 leukemia (dose IP 40 mg/kg) was more than 47.0 days in each case. Moreover, the “MST efficiency %, T/C” value with L-1210 leukemia (dose IP 30 mg/kg) and with L-1210 leukemia (dose IP 40 mg/kg) was more than 783% throughout. Besides, the “Number of live mice on the 5th day” value in the data set with L-1210 leukemia (dose IP 30 mg/kg) and with L-1210 leukemia (dose IP 40 mg/kg) was 6/6 throughout. For the same compound, the “Number of live mice on the [47th] day” value in the data set on L-1210 leukemia (dose IP 30 mg/kg) and in the data set on L-1210 leukemia (dose IP 40 mg/kg) was 5 throughout.

As for `O=P1(N(CCCl)CCCl)NCCCO1` (stereo not drawn) [cyclophosphamide], in the data set on L1210 leukemia [1] (1 × 50 mg/kg, day 2), the ILS % turned out to be 44%.
